This passage reports Kd results from article PMC5482804, “YvcK, a protein required for cell wall integrity and optimal carbon source utilization, binds uridine diphosphate-sugars” (Scientific Reports, 2017).

In assay [1] the target is T1, YvcK (Bacillus subtilis, UniProt O06974).
T1 construct: gene mgfK; His6-tagged YvcK
Put plainly: thermal shift assay (SYPRO Orange) with apparent KD; limited trypsin proteolysis. It counts as binding.

The target in assay [2] is T1, YvcK. As to the kind of experiment: thermal shift assay (SYPRO Orange) with apparent KD. It counts as binding.

T1 sequence (O06974 whole entry): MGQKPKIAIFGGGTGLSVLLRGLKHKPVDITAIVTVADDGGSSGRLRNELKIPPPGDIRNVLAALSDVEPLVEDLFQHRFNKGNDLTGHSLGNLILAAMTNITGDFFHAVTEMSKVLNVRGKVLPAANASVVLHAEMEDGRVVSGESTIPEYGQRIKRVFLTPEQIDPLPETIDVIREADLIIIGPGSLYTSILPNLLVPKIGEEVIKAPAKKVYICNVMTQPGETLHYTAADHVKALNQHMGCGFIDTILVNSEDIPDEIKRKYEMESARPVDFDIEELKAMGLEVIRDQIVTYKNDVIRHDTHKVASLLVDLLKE

On to `CC(=O)N[C@H]1[C@@H](OP(=O)(O)OP(=O)(O)OC[C@H]2O[C@@H](n3ccc(=O)[nH]c3=O)[C@H](O)[C@@H]2O)O[C@H](CO)[C@@H](O)[C@@H]1O` [UDP-GlcNAc], for which the Kd at YvcK [1] is 0.41 ± 0.24 mM.
Consider `O=c1ccn([C@@H]2O[C@H](COP(=O)(O)OP(=O)(O)O)[C@@H](O)[C@H]2O)c(=O)[nH]1` [UDP], for which the Kd on YvcK [2] is 6.21 ± 0.62 mM.
